For one assay, the system named is A549. The assay is described as follows: Cytotoxicity against human A549 cells after 48 hrs by SRB assay. It counts as functional, cell-based. As to conditions: A549, 48 h. On the technique in general: Sulforhodamine B stains cellular protein and so reports cell mass.
The test system of another assay is SK-OV-3. Briefly: Cytotoxicity against human SKOV3 cells after 48 hrs by SRB assay. The following applies: SK-OV-3, 48 h. It counts as functional, cell-based.

Each structure is given as a SMILES string.

As usually defined, the IC50 is the concentration that gives 50% inhibition. A lower IC50 goes with greater potency in that assay. For the molecule `C=CC(C)(C)c1c(O)cc(O)c2c(=O)c3c(CC=C(C)C)c(O)c(O)cc3oc12` [CUDRATRICUSXANTHONE A], the results for the IC50 in the assay on A549 and in the assay on SK-OV-3 were 5.93 µM and 7.09 µM, respectively.
For the molecule `C=CC(C)(C)c1c(O)cc2oc3c(CC=C(C)C)c(O)c(O)cc3c(=O)c2c1O` [CUDRAXANTHONE L], the half-inhibitory concentration (IC50) with A549 amounted to 3.15 µM; in the assay with SK-OV-3 it was 4.72 µM.
The like results for `C=CC(C)(C)c1c(O)c(CC=C(C)C)c2oc3cc(O)c(O)cc3c(=O)c2c1O` [MACLURAXANTHONE B] were, in that order, 2.88 µM and 4.24 µM.
`CC(=O)O[C@H]1C(=O)[C@@]2(C)[C@H]([C@H](OC(=O)c3ccccc3)[C@]3(O)C[C@H](OC(=O)[C@H](O)[C@@H](NC(=O)c4ccccc4)c4ccccc4)C(C)=C1C3(C)C)[C@]1(OC(C)=O)CO[C@@H]1C[C@@H]2O` [PACLITAXEL]: the IC50 with A549 was 1.25 µM; with SK-OV-3, 1.35 µM.

For the origin of these results see ChEMBL document CHEMBL1158719, “Cytotoxic xanthones from Cudrania tricuspidata” (J Nat Prod, 2005).
